{"source": "paper PMC5687811", "about": "(ACS chemical neuroscience, 2016)", "key": {"[1]": {"system": "MC3R and MC4R knockout mice", "details": "cited from earlier work"}, "female and male rats": {"system": "female and male rats", "details": "ref [13]; cited from earlier work"}, "mMC4R [2]": {"system": "mMC4R", "details": "antagonist/inverse agonist, ref [40],[41], cited from earlier work"}, "[3]": {"system": "females, ovariectomized or estradiol treated", "details": "cited from earlier work; for effect of ovariectomy or estradiol treatment on food intake after ligand: ref [13],[21],[34]"}, "[4]": {"details": "ref [13],[24]; cited from earlier work"}, "male and female rats": {"system": "male and female rats", "details": "ICV, ref [5] Maranon and coworkers in 2014, cited from earlier work"}, "mouse (m)MC3R": {"system": "mouse (m)MC3R", "details": "HEK293 cells, cited from earlier work"}, "mMC1R": {"system": "mMC1R", "details": "read-out: EC50 at mMC1R; agonist; ref [22],[23]; cited from earlier work"}, "[5]": {"system": "wild type female and male littermate mice", "assay": "Energy expenditure after ICV administration, TSE metabolic cages", "format": "in vivo, mice (mixed C57BL/6J and 129/Sv)"}, "male and female mice": {"system": "male and female mice", "format": "in vivo, mice (mixed C57BL/6J and 129/Sv)", "details": "5 nmol ICV, conventional cages, pilot"}, "[6]": {"system": "wild type female and male littermate mice", "assay": "Respiratory exchange ratio", "format": "in vivo, mice (mixed C57BL/6J and 129/Sv)"}, "mMC4R [7]": {"system": "mMC4R", "details": "HEK293 cells, ref [22],[23] (Doering et. al.), cited from earlier work"}, "mMC5R": {"system": "mMC5R", "details": "read-out: EC50 at mMC5R; agonist; ref [22],[23]; cited from earlier work"}, "[8]": {"system": "wild type female and male littermate mice", "assay": "Cumulative food intake after ICV administration, TSE metabolic cages", "format": "in vivo, mice (mixed C57BL/6J and 129/Sv)"}, "[9]": {"assay": "Solubility / precipitation of SKY2-23-7", "format": "physicochemical"}, "[10]": {"system": "wild type female and male littermate mice", "assay": "Locomotor activity", "format": "in vivo, mice (mixed C57BL/6J and 129/Sv)", "details": "for total ambulatory activity (cumulative beam breaks): ICV"}}, "note": "Several values for one entry are separate records, joined by “and”; a condition that tells them apart may be missing. Identical values can stand only once. Entries after “also recorded” stand apart in the source; their conditions may differ. Like-named read-outs stand apart in the source and are kept apart here. [ ]: non-standard residue; d: D form. dPhe(4-I) = N[C@H](Cc1ccc(I)cc1)C(=O)O", "data": [{"substance": "MTII", "values": [{"measurement": "sex difference in food intake effect", "setting": "[1]; MC3R and MC4R knockout mice, same genotype, ref [15],[16]", "value": "no differences reported between male and female mice"}, {"measurement": "food intake", "setting": "[1]; MC3R and MC4R knockout mice, ref [15],[16]", "value": "decrease food intake"}]}, {"substance": "AGRP: endogenous MC3R antagonist and MC4R antagonist/inverse agonist AGRP (SSRRCVRLHESCLGQQVPCCDPCATCYCRFFNAFCYCRKLGTAMNPCSRT; UniProt O00253 83-132, looked up)", "values": [{"measurement": "energy expenditure, female versus male", "setting": "female and male rats", "value": "reduces energy expenditure in female rats more than in male rats"}, {"measurement": "food intake", "setting": "female and male rats", "value": "food intake is unaffected"}, {"measurement": "pA2 at mMC4R", "setting": "mMC4R [2]", "value": 9.4}, {"measurement": "Ki", "setting": "mMC4R [2]; read-out: Ki at mMC4R", "value": "0.4 to 2.5", "unit": "nM"}, {"measurement": "effect of ovariectomy on ligand-dependent energy expenditure", "setting": "[3]; females, ref [13]", "value": "ovariectomy can blunt"}, {"measurement": "effect of ovariectomy or estradiol treatment on food intake after ligand", "setting": "[3]", "value": "minimal effects on food intake"}, {"measurement": "food intake", "setting": "[1]; ICV, MC3R and MC4R male knockout mice, ref [8],[12]", "value": "increased food intake"}, {"measurement": "energy expenditure", "setting": "[4]", "value": "decrease energy expenditure"}, {"measurement": "respiratory exchange ratio (RER)", "setting": "[4]", "value": "increase respiratory exchange ratio"}]}, {"substance": "SHU9119", "values": [{"measurement": "blood pressure", "setting": "male and female rats; female rats", "value": "no effect on blood pressure"}, {"measurement": "blood pressure", "setting": "male and female rats; male rats", "value": "significantly reduced blood pressure"}, {"measurement": "partial agonism at mMC3R", "setting": "mouse (m)MC3R; at 1 µM, ref [22] (Doering et. al.)", "value": 50, "unit": "%"}, {"measurement": "effect of ovariectomy or estradiol treatment on food intake after ligand", "setting": "[3]", "value": "minimal effects on food intake"}, {"measurement": "energy expenditure", "setting": "[4]", "value": "decrease energy expenditure"}]}, {"substance": "Ac-W[dPhe(4-I)]RW-NH2 [SKY2-23-7]", "values": [{"measurement": "EC50", "setting": "mMC1R", "value": "2000 ± 600", "unit": "nM"}, {"measurement": "energy expenditure", "setting": "[5]; female, 2.5 nmol ICV, p<0.001, observed at 5, 6, 15, 21, and 22 hours", "value": "significant increase in energy expenditure"}, {"measurement": "total calories burned in 24 hours", "setting": "[5]; female, 7.5 nmol ICV, p<0.05", "value": "significant decrease in total calories burned"}, {"measurement": "energy expenditure (trend)", "setting": "[5]; male, 7.5 nmol ICV", "value": "trended towards decreasing energy expenditure"}, {"measurement": "hourly energy expenditure normalized to weight (Kcal/hr/kg)", "setting": "[5]; male, 7.5 nmol ICV, at 4, 20, 21, 23 and 24 hours, compared to control", "value": "decrease in energy expenditure"}, {"measurement": "total calories spent in 24 hours", "setting": "[5]; male, ICV", "value": "no effect"}, {"measurement": "energy expenditure", "setting": "[5]; male, doses lower than 7.5 nmol ICV", "value": "No significant effect"}, {"measurement": "food intake", "setting": "male and female mice; female, trend of increase in food intake", "value": "not observed"}, {"measurement": "food intake", "setting": "male and female mice; male", "value": "an increase in food intake was observed"}, {"measurement": "average RER", "setting": "[6]; female, 2.5 nmol ICV, both dark and light cycles, p<0.01", "value": "significantly increased"}, {"measurement": "RER", "setting": "[6]; female, 7.5 nmol ICV", "value": "no effect"}, {"measurement": "RER", "setting": "[6]; male, 2.5 nmol ICV", "value": "minimal effect"}, {"measurement": "hourly RER", "setting": "[6]; male, 7.5 nmol ICV, early light cycle 15–18 hrs post-administration", "value": "significantly increased"}, {"measurement": "total average RER", "setting": "[6]; male, 7.5 nmol ICV, entire light cycle (14–26 hrs)", "value": "No significant effect"}, {"measurement": "total average RER", "setting": "[6]; male, 7.5 nmol ICV, first dark cycle (0–14 hrs), p<0.01", "value": "increased"}, {"measurement": "total average RER", "setting": "[6]; male, 7.5 nmol ICV, first two hours following injection, p<0.01", "value": "increased"}, {"measurement": "hourly RER", "setting": "[6]; male, 7.5 nmol ICV, individual time points 2–7 and 10–14 hours", "value": "increased"}, {"measurement": "pA2 at mMC4R", "setting": "mMC4R [7]; Schild analysis, antagonist", "value": "7.83 and 7.83±0.16"}, {"measurement": "agonist activity at mMC4R", "setting": "mMC4R [7]; up to 100 µM", "value": "minimal agonist activity"}, {"measurement": "EC50", "setting": "mMC5R", "value": "2800 ± 1100", "unit": "nM"}, {"measurement": "pA2 at mMC3R", "setting": "mouse (m)MC3R; Schild analysis, antagonist, ref [22],[23] (Doering et. al.)", "value": "5.43±0.16"}, {"measurement": "agonist activity at mMC3R", "setting": "mouse (m)MC3R; up to 100 µM, ref [22],[23] (Doering et. al.)", "value": "minimal agonist activity; also recorded: lacks the mMC3R partial agonism"}, {"measurement": "cumulative food intake", "setting": "[8]; female, 2.5 nmol ICV, 6–24 hours post-administration", "value": "significant increase in food intake"}, {"measurement": "cumulative food intake, dose response", "setting": "[8]; female, 2.5 nmol, 1 nmol, and 0.5 nmol ICV", "value": "A dose response pattern is observed"}, {"measurement": "cumulative food intake", "setting": "[8]; female, 5 nmol ICV", "value": "no significant effect"}, {"measurement": "cumulative food intake", "setting": "[8]; female, 7.5 nmol ICV", "value": "no significant effect"}, {"measurement": "cumulative food intake", "setting": "[8]; male, 2.5 nmol ICV", "value": "no significant effect"}, {"measurement": "cumulative food intake", "setting": "[8]; male, 7.5 nmol ICV, 2–24 hours post-administration", "value": "significant increase in food intake"}, {"measurement": "cumulative food intake, dose response", "setting": "[8]; male, ICV, metabolic cages, p<0.0001", "value": "dose dependent increase in food intake"}, {"measurement": "solubility in saline", "setting": "[9]; added to saline alone", "value": "precipitated out"}, {"measurement": "solubility limit on dosing", "setting": "[9]; doses above 7.5 nmol ICV, male mice", "value": "higher dosing was prevented due to the solubility"}, {"measurement": "hourly activity", "setting": "[10]; female, 2.5 nmol ICV, 5 hours post administration", "value": "Increased activity"}, {"measurement": "hourly activity", "setting": "[10]; female, 2.5 nmol ICV, 24 hours post administration", "value": "significant decrease in activity"}, {"measurement": "total activity", "setting": "[10]; female, 5 nmol ICV, light cycle, p<0.05", "value": "significant decrease in total activity"}, {"measurement": "total activity", "setting": "[10]; female, other doses ICV, dark cycle (0–14 hrs), p=0.28", "value": "no other doses resulted in a significant changes in total activity"}, {"measurement": "total activity", "setting": "[10]; female, other doses ICV, light cycle (14–26 hrs), p=0.65", "value": "no other doses resulted in a significant changes in total activity"}, {"measurement": "hourly activity", "setting": "[10]; male, 7.5 nmol ICV, time points 8, 15, 18, and 24 hours", "value": "significant increases in activity"}, {"measurement": "total ambulatory activity (cumulative beam breaks)", "setting": "[10]; male, dark cycle (0–14 hrs), p=0.39", "value": "no significant effect"}, {"measurement": "total ambulatory activity (cumulative beam breaks)", "setting": "[10]; male, light cycle (14–26 hrs), p=0.64", "value": "no significant effect"}]}]}
